Reference: ChEMBL document CHEMBL1159112, “Synthesis, biological evaluation, and molecular modeling of berberine derivatives as potent acetylcholinesterase inhibitors” (Bioorg Med Chem, 2010)

What was measured:
Acetylcholinesterase [1] = target: T1, Acetylcholinesterase (Electrophorus electricus, UniProt O42275); assay: Inhibition of electric eel AChE by modified Ellman method
Acetylcholinesterase [2] = target: T1, Acetylcholinesterase; assay: Inhibition of electric eel AChE by enzyme kinetics assay
[3] = Selectivity for electric eel AChE over horse serum BChE
Cholinesterase = Cholinesterase (Equus caballus, UniProt P81908)
Sequence of Cholinesterase (P81908 whole entry): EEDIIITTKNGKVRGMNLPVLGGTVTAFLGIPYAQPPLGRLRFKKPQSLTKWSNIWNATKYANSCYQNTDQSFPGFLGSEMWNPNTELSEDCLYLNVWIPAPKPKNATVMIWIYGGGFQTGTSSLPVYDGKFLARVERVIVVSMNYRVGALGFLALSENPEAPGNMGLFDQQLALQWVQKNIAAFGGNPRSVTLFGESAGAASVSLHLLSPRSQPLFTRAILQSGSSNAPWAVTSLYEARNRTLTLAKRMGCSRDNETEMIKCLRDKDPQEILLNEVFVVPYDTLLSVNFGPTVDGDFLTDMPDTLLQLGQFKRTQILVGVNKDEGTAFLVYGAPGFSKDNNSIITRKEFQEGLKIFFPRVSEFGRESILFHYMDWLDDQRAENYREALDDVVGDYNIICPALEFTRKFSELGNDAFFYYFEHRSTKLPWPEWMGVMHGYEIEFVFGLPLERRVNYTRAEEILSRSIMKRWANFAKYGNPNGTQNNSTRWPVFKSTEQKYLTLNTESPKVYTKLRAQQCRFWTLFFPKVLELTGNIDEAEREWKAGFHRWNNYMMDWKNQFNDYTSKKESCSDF
Description: Inhibition of horse serum BChE by Ellman's method

T1 sequence (O42275 whole entry): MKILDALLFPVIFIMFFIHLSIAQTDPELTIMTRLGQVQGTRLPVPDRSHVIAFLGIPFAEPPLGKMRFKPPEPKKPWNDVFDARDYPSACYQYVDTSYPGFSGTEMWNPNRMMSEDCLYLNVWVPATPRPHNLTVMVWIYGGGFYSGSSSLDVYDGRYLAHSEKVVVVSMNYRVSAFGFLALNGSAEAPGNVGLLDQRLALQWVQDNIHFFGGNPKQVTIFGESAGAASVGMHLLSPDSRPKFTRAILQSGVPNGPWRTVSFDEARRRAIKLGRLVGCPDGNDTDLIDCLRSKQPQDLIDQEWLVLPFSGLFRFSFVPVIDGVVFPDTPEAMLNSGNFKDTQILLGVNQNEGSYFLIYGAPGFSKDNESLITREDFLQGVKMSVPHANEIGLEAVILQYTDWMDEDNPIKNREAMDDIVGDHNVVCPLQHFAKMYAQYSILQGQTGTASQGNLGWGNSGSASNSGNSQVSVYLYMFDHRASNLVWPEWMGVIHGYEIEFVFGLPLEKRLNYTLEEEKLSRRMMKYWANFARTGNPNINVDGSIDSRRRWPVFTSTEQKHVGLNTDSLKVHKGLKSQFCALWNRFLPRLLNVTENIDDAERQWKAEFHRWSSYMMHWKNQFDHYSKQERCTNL

| SMILES | IC50 (Acetylcholinesterase [1]) | Ki (Acetylcholinesterase [2]) | Ratio IC50 [3] | IC50 (Cholinesterase) |
| --- | --- | --- | --- | --- |
| COc1ccc2cc3[n+](cc2c1OC)CCc1cc2c(cc1-3)OCO2 [BERBERINE CHLORIDE] | 374 nM | 289 nM |  |  |
| COc1ccc2cc3[n+](cc2c1OCCCCCOc1ccccc1)CCc1cc2c(cc1-3)OCO2 | 398 nM |  |  |  |
| COc1ccc2cc3[n+](cc2c1OCCOn1nnc2ccccc21)CCc1cc2c(cc1-3)OCO2 | 375 nM |  |  |  |
| COc1ccc2cc3[n+](cc2c1OCCCCCCOc1ccccc1)CCc1cc2c(cc1-3)OCO2 | 520 nM |  |  |  |
| COc1ccc2cc3[n+](cc2c1OCCCOc1ccccc1)CCc1cc2c(cc1-3)OCO2 | 123 nM |  |  |  |
| COc1ccc2cc3[n+](cc2c1OCCCCCCOn1nnc2ccccc21)CCc1cc2c(cc1-3)OCO2 | 515 nM |  | 5.5 |  |
| COc1ccc2cc3[n+](cc2c1OCCCCCOc1cccc2[nH]c4ccccc4c12)CCc1cc2c(cc1-3)OCO2 | 1680 nM |  |  |  |
| COc1ccc2cc3[n+](cc2c1OCCCCCCOc1cccc2[nH]c4ccccc4c12)CCc1cc2c(cc1-3)OCO2 | 2100 nM |  |  |  |
| COc1ccc2cc3[n+](cc2c1OCCOc1ccccc1)CCc1cc2c(cc1-3)OCO2 | 224 nM |  |  |  |
| COc1ccc2cc3[n+](cc2c1OCCCCOn1nnc2ccccc21)CCc1cc2c(cc1-3)OCO2 | 224 nM |  | 18.6 | 4170 nM |
| COc1ccc2cc3[n+](cc2c1OCCOc1cccc2[nH]c4ccccc4c12)CCc1cc2c(cc1-3)OCO2 | 1230 nM |  |  |  |
| COc1ccc2cc3[n+](cc2c1OCCCCOc1cccc2[nH]c4ccccc4c12)CCc1cc2c(cc1-3)OCO2 | 856 nM |  |  |  |
| COc1ccc2cc3[n+](cc2c1OCCCOn1nnc2ccccc21)CCc1cc2c(cc1-3)OCO2 | 359 nM |  | 8 | 2890 nM |
| COc1ccc2cc3[n+](cc2c1OCCCCCOn1nnc2ccccc21)CCc1cc2c(cc1-3)OCO2 | 280 nM |  | 8.9 | 2490 nM |
| COc1ccc2cc3[n+](cc2c1OCCCOc1cccc2[nH]c4ccccc4c12)CCc1cc2c(cc1-3)OCO2 | 1120 nM |  |  |  |
